According to PMC13308190, “Endothelial progenitor cell susceptibility to DNA damaging and DDR-modulating compounds determines endothelial differentiation accuracy” (Stem Cell Research & Therapy, 2026):
pIC50: −log10 of the molar value.

Tests used:
Assay type in all cases: cell-based, mouse
[1] = tested on: EC d6; test: Mitochondrial membrane potential (TMRM-MitoTracker Green); settings: EC d6 treated 24 h
Experimental: Mitochondrial membrane potential (ΔΨm) was analyzed by live-cell imaging using TMRM-MitoTracker Green co-staining. Cells were seeded and differentiated on Poly-D-Lysine-fibronectine-coated live-imaging dishes. For staining, cells were incubated with 200nM MitoTracker Green (Invitrogen) and 50 nM TMRM (Invitrogen) in DMEM (30 min, 37 °C, 5% CO2). After washing with PBS, live-cell microscopy was performed using a spinning disc confocal microscope (PerkinElmer) equipped with a 60x oil-immersion objective (N.A = 1.49) and a Hamamatsu C9100 camera (1000 × 1000 pixel) (excitation (MitoTracker Green): 488 nm, excitation (TMRM): 561 nm). The cells were kept at 37 °C in OptiMEM supplemented with 10 mM HEPES during imaging. The images were obtained at emission wavelength of 527 nm (W55) and 615 nm (W70) for 488 nm and 561 nm excitation, respectively.

[2] = tested on: EC d4 (endothelial progenitor cells); test: RT-qPCR mRNA expression; settings: for Flk1 mRNA / Nanog mRNA / Oct4 mRNA / Pecam1 mRNA / Tie1 mRNA / VE-cad mRNA: analysed day 6, Fig 1C; for Ccl2 mRNA / Icam-1 mRNA / Vcam-1 mRNA / iNos mRNA / eNos mRNA: Fig 8D; for Gpx4 mRNA / Slc7a11 mRNA: Fig 6F
Experimental: Total RNA was purified using the RNeasy Mini Kit (Qiagen, Hilden, Germany). Reverse transcriptase (RT) reaction was performed with the HighCapacity cDNA Reverse Transcription Kit (Applied Biosystems, Darmstadt, Germany) using 900–2000 ng of RNA. Quantitative RT-qPCR analysis was performed using following conditions: (1) 95 °C–10 min; (2) 45 amplification cycles with 95 °C–15 s, 55 °C–15 s, and 72 °C–17 s; (3) 95 °C–1 min, 55 °C–1 min, 65 °C–5 s. If not stated otherwise, analyses were performed in technical triplicates using pooled samples from two independent experiments (each performed with biological duplicates) by use of a CFX96 cycler (BioRad) and the SensiMix SYBR Kit (Bioline, London, UK). The primers used for mRNA expression analyses are listed in Supplementary Table 1. To ensure the specificity of the amplification product, melting curves were recorded at the end of the run. mRNA expression levels were normalized to β-Actin and Gapdh. Relative mRNA expression in mESC or corresponding untreated controls was set to 1.0. Only changes in gene expression of ≤ 0.5- and ≥ 2-fold were considered as biologically relevant.
To monitor prototypical functions of endothelial cells, the uptake of fluorescent 1,1-dioctadecyl-3,3,3,3-tetra-methylindocarbocyanine-labeled acetylated LDL (Dil-acLDL) was examined. Briefly, cells were incubated with Dil-acLDL (10 µg/ml, 4 h, 37 °C). After fixation (3.7% cold formaldehyde/PBS (15 min, RT) nuclei were counterstained with DAPI. The uptake of DiI-acLDL was analyzed by fluorescence microscopy (Olympus BX43, 20x objective). Additionally, the response of differentiated EC to inflammatory cytokines was measured. After treatment with a pro-inflammatory cytokine mixture (TNFα/IL-1β, 10 ng/mL) for 1 h, mRNA expression of activated EC markers E-selectin, Icam-1, Vcam-1, Ccl2, eNos, iNos was analyzed (RT-qPCR).

[3] = tested on: EC d4; test: Nuclear γH2AX / 53BP1 foci (DSB); settings: EC d4 48 h, equitoxic concentrations
Experimental: (§1) DNA double-strand breaks were monitored by immunocytochemical detection of nuclear γH2AX and 53BP1 foci. Cells were fixed with 3.7% formaldehyde/PBS (15 min, RT) and permeabilized (0.3% TritonX/PBS; 15 min, RT). […] Cell suspension was mixed with 0.5% low melting point agarose and applied onto glass slides coated with 1.5% agarose. After lysis in alkaline buffer (pH 10, 1 h, 4 °C, protected from light) and DNA denaturation in precooled electrophoresis buffer (pH > 13, 25 min, 4 °C, protected from light) electrophoresis was performed (300 mA, 25 V, 4 °C, 25 min).

[4] = tested on: mESC; test: Nuclear γH2AX / 53BP1 foci (DSB); settings: mESC 24 h, equitoxic concentrations
Experimental: as §1

[5] = tested on: EC d4 (endothelial progenitor cells); test: AlamarBlue cell viability; settings: 48 h treatment
Experimental: (§2) Drug-induced cytotoxicity was monitored by analyzing cell viability using the AlamarBlue assay, which measures the reduction of the non-fluorescent dye resazurin (Sigma [Steinheim, Germany]) to fluorescent resorufin by living (i.e. metabolically active) cells. Fluorescence was measured in quadruplicates (excitation: 535 nm, emission: 590 nm (Tecan infinite 200, Tecan, Männedorf, Switzerland)). Relative cell viability of the untreated control was set to 100%.

[6] = tested on: mESC; test: AlamarBlue cell viability; settings: Mus musculus
Experimental: as §2

[7] = tested on: EC d4; test: VE-cadherin cell-cell junction immunostaining; settings: EC d4 treated 48 h
[8] = EC d4 + 0.005 µM 48 h, analysed in EC d6
[9] = EC d4 + 0.005 µM 48 h, then + I/T (IL-1β/TNFα 10 ng/ml, 1 h)
[10] = EC d4 + 0.05 µM 48 h, analysed in EC d6
[11] = EC d4 + 0.05 µM 48 h, then + I/T (IL-1β/TNFα 10 ng/ml, 1 h)

mitochondrial membrane potential [1]: significantly reduced
SMILES: COc1cccc2c1C(=O)c1c(O)c3c(c(O)c1C2=O)C[C@@](O)(C(=O)CO)C[C@@H]3O[C@H]1C[C@H](N)[C@H](O)[C@H](C)O1 [Dox, doxorubicin]
Flk1 mRNA ([2]; EC d4 + 0.005 µM 48 h): 18.23 Fold of mESC
Nanog mRNA ([2]; EC d4 + 0.005 µM 48 h): 0.03 Fold of mESC
Oct4 mRNA ([2]; EC d4 + 0.005 µM 48 h): 0.02 Fold of mESC
Pecam1 mRNA ([2]; EC d4 + 0.005 µM 48 h): 0.78 Fold of mESC
Tie1 mRNA ([2]; EC d4 + 0.005 µM 48 h): 90.91 Fold of mESC
VE-cad mRNA ([2]; EC d4 + 0.005 µM 48 h): 653.73 Fold of mESC
Ccl2 mRNA [2, 8]: 2.40 Fold of untreated control
Icam-1 mRNA [2, 8]: 3.06 Fold of untreated control
Vcam-1 mRNA [2, 8]: 0.44 Fold of untreated control
iNos mRNA [2, 8]: 4.75 Fold of untreated control
Ccl2 mRNA [2, 9]: 242.22 Fold of untreated control
Icam-1 mRNA [2, 9]: 14.94 Fold of untreated control
Vcam-1 mRNA [2, 9]: 1.13 Fold of untreated control
eNos mRNA [2, 9]: 157.09 Fold of untreated control
iNos mRNA [2, 9]: 4.95 Fold of untreated control
Atp7a mRNA ([2]; EC d4 + 0.005 µM 48 h, Fig 2D): 1.11 Fold of control
Ctr2 mRNA ([2]; EC d4 + 0.005 µM 48 h, Fig 2D): 1.25 Fold of control
Mdr1 mRNA ([2]; EC d4 + 0.005 µM 48 h, Fig 2D): 1.46 Fold of control
Mrp1 mRNA ([2]; EC d4 + 0.005 µM 48 h, Fig 2D): 1.32 Fold of control
Oct2 mRNA ([2]; EC d4 + 0.005 µM 48 h, Fig 2D): 0.33 Fold of control
Gpx4 mRNA ([2]; EC d4 + 0.005 µM 48 h): 1.07 Fold of untreated control
Slc7a11 mRNA ([2]; EC d4 + 0.005 µM 48 h): 1.71 Fold of untreated control
Cdkn1a mRNA ([2]; EC d4 + 0.005 µM 48 h, Fig 7B): 1.42 Fold of untreated control
Cdkn2a mRNA ([2]; EC d4 + 0.005 µM 48 h, Fig 7B): 1.12 Fold of untreated control
Glb1 mRNA ([2]; EC d4 + 0.005 µM 48 h, Fig 7B): 0.97 Fold of untreated control
Il6 mRNA ([2]; EC d4 + 0.005 µM 48 h, Fig 7B): 0.95 Fold of untreated control
Il8 mRNA ([2]; EC d4 + 0.005 µM 48 h, Fig 7B): 1.26 Fold of untreated control
Tp53 mRNA ([2]; EC d4 + 0.005 µM 48 h, Fig 7B): 0.98 Fold of untreated control
Flk1 mRNA ([2]; EC d4 + 0.05 µM 48 h): 26.95 Fold of mESC
Nanog mRNA ([2]; EC d4 + 0.05 µM 48 h): 0.02 Fold of mESC
Oct4 mRNA ([2]; EC d4 + 0.05 µM 48 h): 0.02 Fold of mESC
Pecam1 mRNA ([2]; EC d4 + 0.05 µM 48 h): 1.42 Fold of mESC
Tie1 mRNA ([2]; EC d4 + 0.05 µM 48 h): 146.88 Fold of mESC
VE-cad mRNA ([2]; EC d4 + 0.05 µM 48 h): 1297.80 Fold of mESC
Ccl2 mRNA [2, 10]: 23.54 Fold of untreated control
Icam-1 mRNA [2, 10]: 53.37 Fold of untreated control
Vcam-1 mRNA [2, 10]: 0.085 Fold of untreated control
eNos mRNA [2, 10]: 239.30 Fold of untreated control
iNos mRNA [2, 10]: 3.20 Fold of untreated control
Ccl2 mRNA [2, 11]: 2314.32 Fold of untreated control
Icam-1 mRNA [2, 11]: 154.74 Fold of untreated control
Vcam-1 mRNA [2, 11]: 0.39 Fold of untreated control
eNos mRNA [2, 11]: 234.32 Fold of untreated control
iNos mRNA [2, 11]: 3.41 Fold of untreated control
Atp7a mRNA ([2]; EC d4 + 0.05 µM 48 h, Fig 2D): 1.81 Fold of control
Atp7b mRNA ([2]; EC d4 + 0.05 µM 48 h, Fig 2D): 0.54 Fold of control
Ctr2 mRNA ([2]; EC d4 + 0.05 µM 48 h, Fig 2D): 1.38 Fold of control
Mdr1 mRNA ([2]; EC d4 + 0.05 µM 48 h, Fig 2D): 105.13 Fold of control
Mrp1 mRNA ([2]; EC d4 + 0.05 µM 48 h, Fig 2D): 1.43 Fold of control
Oct2 mRNA ([2]; EC d4 + 0.05 µM 48 h, Fig 2D): 0.53 Fold of control
Brca1 mRNA ([2]; EC d4 + 0.05 µM 48 h, Fig 5C): 0.25 Fold of mESC
Chk1 mRNA ([2]; EC d4 + 0.05 µM 48 h, Fig 5C): 0.34 Fold of mESC
Rad51 mRNA ([2]; EC d4 + 0.05 µM 48 h, Fig 5C): 0.27 Fold of mESC
Pgc1a mRNA ([2]; EC d4 + 0.05 µM 48 h, Fig 6D): 24.33 Fold of untreated control
Gpx4 mRNA ([2]; EC d4 + 0.05 µM 48 h): 1.35 Fold of untreated control
Slc7a11 mRNA ([2]; EC d4 + 0.05 µM 48 h): 3.43 Fold of untreated control
Cdkn1a mRNA ([2]; EC d4 + 0.05 µM 48 h, Fig 7B): 4.89 Fold of untreated control
Cdkn2a mRNA ([2]; EC d4 + 0.05 µM 48 h, Fig 7B): 3.09 Fold of untreated control
Glb1 mRNA ([2]; EC d4 + 0.05 µM 48 h, Fig 7B): 1.54 Fold of untreated control
Il6 mRNA ([2]; EC d4 + 0.05 µM 48 h, Fig 7B): 1.91 Fold of untreated control
Il8 mRNA ([2]; EC d4 + 0.05 µM 48 h, Fig 7B): 25.17 Fold of untreated control
Cldn5 mRNA ([2]; EC d4 + 0.05 µM 48 h, Fig 8C): 1.35 Fold of EC d4 or d6
Ocln mRNA ([2]; EC d4 + 0.05 µM 48 h, Fig 8C): 1.78 Fold of EC d4 or d6
Tjp1 mRNA ([2]; EC d4 + 0.05 µM 48 h, Fig 8C): 2.10 Fold of EC d4 or d6
Ldlr mRNA ([2]; EC d4 + 0.05 µM 48 h, Fig 8F): 0.45 Fold of untreated control
DSB numbers (γH2AX / 53BP1 foci) [3]: clear increase
nuclear γH2AX foci [4]: significant increase
susceptibility (cell viability) of EC d4 as compared to both mESC and EC d6 [5]: significant higher
pIC50 ([6]; 24 h treatment): 6.77
pIC50 ([6]; 72 h treatment): 8.05
VE-cadherin cell-cell junctions in EC d6 differentiated from treated EC d4 [7]: disturbed
